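Briefly, cells in 96-well plates were exposed to five compound concentrations for 48 h, and endpoints were estimated by linear interpolation. Abbreviation: GI50, concentration required for 50% inhibition of growth. TGI marks complete inhibition of growth.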
How the values were obtained:
Assay in all cases: DTP human tumour cell line panel, 48 h
UO-31 renal = test system: UO-31 renal
SK-OV-3 ovarian = test system: SK-OV-3 ovarian
HOP-62 NSCLC = test system: HOP-62 NSCLC
786-0 renal = test system: 786-0 renal
MDA-N = test system: MDA-N
KM12 colon = test system: KM12 colon
SF-539 CNS = test system: SF-539 CNS
HT29 colon = test system: HT29 colon
MCF7 breast = test system: MCF7 breast
MOLT-4 leukemia = test system: MOLT-4 leukemia

Structure (SMILES)	TGI (UO-31 renal)	TGI (SK-OV-3 ovarian)	TGI (HOP-62 NSCLC)	TGI (786-0 renal)	TGI (MDA-N)	TGI (KM12 colon)	TGI (SF-539 CNS)	TGI (HT29 colon)	TGI (MCF7 breast)	GI50 (UO-31 renal)	GI50 (SK-OV-3 ovarian)	GI50 (HOP-62 NSCLC)	GI50 (MOLT-4 leukemia)	TGI (MOLT-4 leukemia)	GI50 (KM12 colon)	GI50 (HT29 colon)	GI50 (MCF7 breast)
O=C(Cc1ccccc1)NN1C(=O)/C(=C\c2cccc(O)c2)SC1=Nc1ccccc1	> 100 µM	> 100 µM	> 100 µM	> 100 µM	> 100 µM	> 100 µM	> 100 µM	> 100 µM	> 100 µM	–	–	–	–	–	–	–	–
C[C@]12CCc3nc(Nc4ccccc4)sc3C1=CC[C@@H]1[C@@H]2CC[C@]2(C)/C(=N/NC(N)=S)CC[C@@H]12	> 100 µM	> 100 µM	> 100 µM	–	–	> 100 µM	–	> 100 µM	> 100 µM	3.71 µM	82.7 µM	17.6 µM	1.88 µM	> 100 µM	6.17 µM	2.23 µM	1.08 µM
CC(C)C(=O)/C=C/c1ccc(Br)cc1	30.1 µM	49.6 µM	–	23.2 µM	–	27.5 µM	35.5 µM	31.6 µM	–	–	–	–	–	95.9 µM	–	–	–
CC1(CF)SCc2nc3ccccc3n21 (stereo not given)	> 100 µM	> 100 µM	> 100 µM	> 100 µM	> 100 µM	> 100 µM	> 100 µM	> 100 µM	> 100 µM	–	–	–	–	–	–	–	–
NC1=NS(=O)(=O)Nc2nc(-c3ccc(Cl)cc3)c(-c3ccc(Cl)cc3)nc21	> 100 µM	–	> 100 µM	> 100 µM	–	> 100 µM	> 100 µM	> 100 µM	–	–	–	–	–	> 100 µM	–	–	–
CC1=COC(C)(C=C(C#N)C#N)CC1 (stereo not given)	> 100 µM	> 100 µM	> 100 µM	> 100 µM	–	> 100 µM	51.1 µM	> 100 µM	> 100 µM	–	–	–	–	> 100 µM	–	–	–
COc1ccc(O)cc1	> 100 µM	> 100 µM	> 100 µM	> 100 µM	–	> 100 µM	> 100 µM	> 100 µM	–	–	–	–	–	> 100 µM	–	–	–
Nn1c(CCCCCCCCc2nnc(COc3ccc(Cl)cc3)n2N)nnc1COc1ccc(Cl)cc1	> 100 µM	> 100 µM	–	> 100 µM	–	> 100 µM	–	> 100 µM	> 100 µM	–	–	–	–	> 100 µM	–	–	–
COC(=O)[C@H](Cc1ccccc1)NC(=O)[C@H](Cc1ccccc1)NC(=O)[C@@H]1CCCN1C(=O)N[C@H]1C2C=CC(C2)C1C(=O)N1CCC[C@H]1C(=O)N[C@@H](C)C(=O)N[C@H](C(=O)OC)C(C)C (stereo not given in full)	> 100 µM	> 100 µM	> 100 µM	> 100 µM	> 100 µM	> 100 µM	–	> 100 µM	> 100 µM	–	–	–	–	85.6 µM	–	–	–
Oc1cc(C2OCCCO2)cc(O)c1O	> 100 µM	> 100 µM	> 100 µM	> 100 µM	–	> 100 µM	> 100 µM	> 100 µM	–	–	–	–	–	> 100 µM	–	–	–
CCCC(C)NC1=C(NC(C)=O)C(=O)c2ccccc2C1=O (stereo not given)	> 100 µM	> 100 µM	> 100 µM	> 100 µM	–	> 100 µM	> 100 µM	> 100 µM	–	–	–	–	–	> 100 µM	–	–	–

— PubChem BioAssay (NCI)
